Measured values: ChEMBL document CHEMBL3045941, “-Methyl as a bioisostere for the oxygen link between the aromatic rings of aryloxyphenoxypropionate herbicides” (Bioorg Med Chem Lett, 1997)
The source made the active and inactive calls. The calls are words filed in the database; no cut-off is given here.

Tests used:
Echinochloa crus-galli [1] = test: Post-emergent herbicidal activity against Echinochloa crus-galli (barnyard grass) at <2 g/ha measured after 13 days under green house conditions; format: functional, organism-based
Echinochloa crus-galli [2] = test: Post-emergent herbicidal activity against Echinochloa crus-galli (barnyard grass) at 500 g/ha measured after 13 days under green house conditions; format: functional
Setaria viridis [3] = test: Post-emergent herbicidal activity against Setaria viridis (green foxtail) at <2 g/ha measured after 13 days under green house conditions; format: functional, organism-based
Sorghum halepense [4] = test: Post-emergent herbicidal activity against Sorghum halepense (Johnson grass) at 500 g/ha measured after 13 days under green house conditions; format: functional
Avena fatua [5] = test: Post-emergent herbicidal activity against Avena fatua at <2 g/ha measured after 13 days under green house conditions; format: functional, organism-based
Avena fatua [6] = test: Post-emergent herbicidal activity against Avena fatua at 500 g/ha measured after 13 days under green house conditions; format: functional
Triticum aestivum [7] = test: Phytotoxicity against Triticum aestivum (wheat) at two to four-leaf growth stage at <2 g/ha measured after 13 days under green house conditions; format: organism-based; details: in vivo, 312 h
Triticum aestivum [8] = test: Phytotoxicity against Triticum aestivum (wheat) plant at two to four-leaf growth stage at 500 g/ha measured after 13 days under green house conditions; format: organism-based; details: in vivo, 312 h
Oryza sativa [9] = test: Phytotoxicity against Oryza sativa (rice) plant at two to four-leaf growth stage at <2 g/ha measured after 13 days under green house conditions; format: organism-based; details: in vivo, 312 h
Sorghum halepense [10] = test: Post-emergent herbicidal activity against Sorghum halepense (Johnson grass) at <2 g/ha measured after 13 days under green house conditions; format: functional, organism-based
Setaria viridis [11] = test: Post-emergent herbicidal activity against Setaria viridis (green foxtail) at 500 g/ha measured after 13 days under green house conditions; format: functional
Oryza sativa [12] = test: Phytotoxicity against Oryza sativa (rice) plant at two to four-leaf growth stage at 500 g/ha measured after 13 days under green house conditions; format: organism-based; details: in vivo, 312 h
Zea mays [13] = test: Phytotoxicity against Zea mays (maize) plant at two to four-leaf growth stage at <2 g/ha measured after 13 days under green house conditions; format: organism-based; details: in vivo, 312 h
Zea mays [14] = test: Phytotoxicity against Zea mays (maize) plant at two to four-leaf growth stage at 500 g/ha measured after 13 days under green house conditions; format: organism-based; details: in vivo, 312 h
Echinochloa crus-galli [15] = test: Post-emergent herbicidal activity against Echinochloa crus-galli (barnyard grass) at 5 g/ha measured after 13 days under green house conditions; format: functional
Echinochloa crus-galli [16] = test: Post-emergent herbicidal activity against Echinochloa crus-galli (barnyard grass) at 50 g/ha measured after 13 days under green house conditions; format: functional
Setaria viridis [17] = test: Post-emergent herbicidal activity against Setaria viridis (green foxtail) at 5 g/ha measured after 13 days under green house conditions; format: functional
Setaria viridis [18] = test: Post-emergent herbicidal activity against Setaria viridis (green foxtail) at 50 g/ha measured after 13 days under green house conditions; format: functional
Sorghum halepense [19] = test: Post-emergent herbicidal activity against Sorghum halepense (Johnson grass) at 5 g/ha measured after 13 days under green house conditions; format: functional
Sorghum halepense [20] = test: Post-emergent herbicidal activity against Sorghum halepense (Johnson grass) at 50 g/ha measured after 13 days under green house conditions; format: functional
Avena fatua [21] = test: Post-emergent herbicidal activity against Avena fatua at 5 g/ha measured after 13 days under green house conditions; format: functional
Avena fatua [22] = test: Post-emergent herbicidal activity against Avena fatua at 50 g/ha measured after 13 days under green house conditions; format: functional
Triticum aestivum [23] = test: Phytotoxicity against Triticum aestivum (wheat) at two to four-leaf growth stage at 5 g/ha measured after 13 days under green house conditions; format: organism-based; details: in vivo, 312 h
Triticum aestivum [24] = test: Phytotoxicity against Triticum aestivum (wheat) at two to four-leaf growth stage at 50 g/ha measured after 13 days under green house conditions; format: organism-based; details: in vivo, 312 h
Oryza sativa [25] = test: Phytotoxicity against Oryza sativa (rice) plant at two to four-leaf growth stage at 5 g/ha measured after 13 days under green house conditions; format: organism-based; details: in vivo, 312 h
Oryza sativa [26] = test: Phytotoxicity against Oryza sativa (rice) plant at two to four-leaf growth stage at 50 g/ha measured after 13 days under green house conditions; format: organism-based; details: in vivo, 312 h
Zea mays [27] = test: Phytotoxicity against Zea mays (maize) plant at two to four-leaf growth stage at 5 g/ha measured after 13 days under green house conditions; format: organism-based; details: in vivo, 312 h
Zea mays [28] = test: Phytotoxicity against Zea mays (maize) plant at two to four-leaf growth stage at 50 g/ha measured after 13 days under green house conditions; format: organism-based; details: in vivo, 312 h

Compound	Activity (Echinochloa crus-galli [1])	Activity (Echinochloa crus-galli [2])	Activity (Setaria viridis [3])	Activity (Sorghum halepense [4])	Activity (Avena fatua [5])	Activity (Avena fatua [6])	Activity (Triticum aestivum [7])	Activity (Triticum aestivum [8])	Activity (Oryza sativa [9])	Activity (Sorghum halepense [10])	Activity (Setaria viridis [11])	Activity (Oryza sativa [12])	Activity (Zea mays [13])	Activity (Zea mays [14])	Activity (Echinochloa crus-galli [16])	Activity (Setaria viridis [18])	Activity (Sorghum halepense [20])	Activity (Avena fatua [22])	Activity (Triticum aestivum [24])	Activity (Oryza sativa [26])	further results
CCOC(=O)C(C)Oc1ccc(N(C)c2cc3ccc(Cl)cc3cn2)cc1 (racemic)	inactive	100%	inactive	85%	inactive	70%	Non-toxic	85%	Non-toxic	inactive	85%	0%	Non-toxic	100%							
CCOC(=O)C(C)Oc1ccc(Oc2cnc3cc(Cl)ccc3n2)cc1 (racemic) [QUIZALOFOP ETHYL ESTER]	inactive		inactive		inactive		Non-toxic		Non-toxic	inactive			Non-toxic		100%	100%	100%	85%	85%	70%	Activity (Echinochloa crus-galli [15]): 70%; Activity (Setaria viridis [17]): 70%; Activity (Sorghum halepense [19]): 85%; Activity (Avena fatua [21]): 30%; Activity (Triticum aestivum [23]): 85%; Activity (Oryza sativa [25]): 50%; Activity (Zea mays [27]): 85%; Activity (Zea mays [28]): 100%
COC(=O)C(C)Oc1ccc(N(C)c2ccc(Cl)cc2Cl)cc1 (racemic)	inactive	85%	inactive	85%	inactive	0%	Non-toxic	70%	Non-toxic	inactive	85%	0%	Non-toxic	30%							
CCOC(=O)C(C)Oc1ccc(N(C)c2cnc3cc(Cl)ccc3n2)cc1 (racemic)	inactive	85%	inactive	85%	inactive	0%	Non-toxic	85%	Non-toxic	inactive	85%	0%	Non-toxic	50%							
CCOC(=O)C(C)Oc1ccc(Oc2nc3ccc(Cl)cc3o2)cc1 (racemic) [FENOXAPROP-ETHYL]	inactive		inactive		inactive		Non-toxic		Non-toxic	inactive			Non-toxic		100%	100%	100%	85%	0%	70%	Activity (Zea mays [28]): 85%
COC(=O)C(C)Oc1ccc(Oc2nnc3cc(Cl)ccc3n2)cc1 (racemic)	inactive	50%	inactive	30%	inactive	0%	Non-toxic	0%	Non-toxic	inactive	50%	0%	Non-toxic	0%							
COC(=O)C(C)Oc1ccc(N(C)c2nnc3cc(Cl)ccc3n2)cc1 (racemic)	inactive		inactive		inactive		Non-toxic		Non-toxic	inactive			Non-toxic		100%	100%	100%	85%	85%	85%	Activity (Echinochloa crus-galli [15]): 0%; Activity (Setaria viridis [17]): 100%; Activity (Sorghum halepense [19]): 50%; Activity (Avena fatua [21]): 50%; Activity (Triticum aestivum [23]): 70%; Activity (Oryza sativa [25]): 0%; Activity (Zea mays [27]): 70%; Activity (Zea mays [28]): 85%
